Data: US20240132484A1, “BROAD SPECTRUM ANTIVIRAL COMPOUNDS TARGETING THE SKI COMPLEX” (priority 2020, published 2024)
Values joined by “and” are separate entries in the source; they are usually repeats but may differ in a detail not shown here. Equal entries are not always repeated. Where two headings read alike, the source gives them in different places.

Experiments:
SARS2 = type: cell-based, SARS-CoV-2; conditions: for Percentage Infection Relative to Appropriate DMSO Control with Avg Background Subtraction: Nunc Celigo plates; for Infection Data, Average, Mean: average of Exp 1-2 (SMW491, SMW492)
cells (nuclei count) = conditions: for Toxicity Data, Average, Mean percentage relative to DMSO control: Average of Exp 1 (SMW491) and Exp 2 (SMW492)

SMILES: CCN(CC)CCN(Cc1ccccn1)C(=O)c1cccs1 [SILCS37]
- Percentage Infection Relative to Appropriate DMSO Control with Avg Background Subtraction (SARS2; Exp 1 (SMW491), 1 uM): 88.98% and 80.18%
- Percentage Infection Relative to Appropriate DMSO Control with Avg Background Subtraction (SARS2; Exp 1 (SMW491), 5 uM): 95.46% and 97.68%
- Percentage Infection Relative to Appropriate DMSO Control with Avg Background Subtraction (SARS2; Exp 1 (SMW491), 10 uM): 109.85% and 92.25%
- Percentage Infection Relative to Appropriate DMSO Control with Avg Background Subtraction (SARS2; Exp 1 (SMW491), 25 uM): 117.51% and 105.36%
- Percentage Infection Relative to Appropriate DMSO Control with Avg Background Subtraction (SARS2; Exp 1 (SMW491), 50 uM): 136.02% and 127.57%
- Percentage Infection Relative to Appropriate DMSO Control with Avg Background Subtraction (SARS2; Exp 2 (SMW492), 1 uM): 80.82% and 84.84%
- Percentage Infection Relative to Appropriate DMSO Control with Avg Background Subtraction (SARS2; Exp 2 (SMW492), 5 uM): 71.36% and 74.06%
- Percentage Infection Relative to Appropriate DMSO Control with Avg Background Subtraction (SARS2; Exp 2 (SMW492), 25 uM): 121.75% and 63.91%
- Percentage Infection Relative to Appropriate DMSO Control with Avg Background Subtraction (SARS2; Exp 2 (SMW492), 50 uM): 88.75% and 46.65%
- Percentage Inhibition Average 1 μM (SARS2; SARS2, 1 μM): 16.29%
- Screening data (Relative infection to DMSO controls) Average 1 μM (SARS2; SARS2, 1 μM, 100=DMSO control): 83.71
- Percentage Inhibition Average 5 μM (SARS2; SARS2, 5 μM): 15.36%
- Screening data (Relative infection to DMSO controls) Average 5 μM (SARS2; SARS2, 5 μM, 100=DMSO control): 84.64
- Percentage Inhibition Average 10 μM (SARS2; SARS2, 10 μM): 23.94%
- Screening data (Relative infection to DMSO controls) Average 10 μM (SARS2; SARS2, 10 μM, 100=DMSO control): 76.06
- Percentage Inhibition Average 25 μM (SARS2; SARS2, 25 μM): −2.13%
- Screening data (Relative infection to DMSO controls) Average 25 μM (SARS2; SARS2, 25 μM, 100=DMSO control): 102.13
- Percentage Inhibition Average 50 μM (SARS2; SARS2, 50 μM): 0.25%
- Screening data (Relative infection to DMSO controls) Average 50 μM (SARS2; SARS2, 50 μM, 100=DMSO control): 99.75
- Average (relative infection to DMSO over the 5 tested concentrations) (SARS2; SARS2, average over 1 to 50 uM, 100=DMSO control): 89.26
- Infection Data, Average, Mean (SARS2; n 4, 1 uM): 83.71%
- Infection Data, Average, Mean (SARS2; n 4, 5 uM): 84.64%
- Infection Data, Average, Mean (SARS2; n 4, 10 uM): 76.06%
- Infection Data, Average, Mean (SARS2; n 4, 25 uM): 102.13%
- Infection Data, Average, Mean (SARS2; n 4, 50 uM): 99.75%
- Relative cell count to DMSO controls, Average 1 μM (cells (nuclei count); 1 μM, toxicity data, 100=DMSO control): 108.95
- Relative cell count to DMSO controls, Average 5 μM (cells (nuclei count); 5 μM, toxicity data, 100=DMSO control): 110.16
- Relative cell count to DMSO controls, Average 10 μM (cells (nuclei count); 10 μM, toxicity data, 100=DMSO control): 116.31
- Relative cell count to DMSO controls, Average 25 μM (cells (nuclei count); 25 μM, toxicity data, 100=DMSO control): 104.07
- Relative cell count to DMSO controls, Average 50 μM (cells (nuclei count); 50 μM, toxicity data, 100=DMSO control): 75.29
- Toxicity Data, Average, Mean percentage relative to DMSO control (cells (nuclei count); n=4, 1 uM): 108.95%
- Toxicity Data, Average, Mean percentage relative to DMSO control (cells (nuclei count); n=4, 5 uM): 110.16%
- Toxicity Data, Average, Mean percentage relative to DMSO control (cells (nuclei count); n=4, 10 uM): 116.31%
- Toxicity Data, Average, Mean percentage relative to DMSO control (cells (nuclei count); n=4, 25 uM): 104.07%
- Toxicity Data, Average, Mean percentage relative to DMSO control (cells (nuclei count); n=4, 50 uM): 75.29%
- Relative cell count to DMSO controls, Average (for correlation analysis) (cells (nuclei count); average value over the 5 tested concentrations (1 to 50 uM)): 102.96
